Structures can show the parent of a compound that is named as a salt. Where two headings read alike, the source gives them in different places.
Legend:
hPPARγ1 = biological target: T1, hPPARγ1 (Homo sapiens, UniProt P37231); assay: Determination of hPPARγ activity (GAL4-LBD luciferase reporter transactivation in HEK-293 cells); format: cell-based; details: 1 μM compound
T1 construct: expressed in transfected cells; host or cells: HEK-293
T1 sequence (P37231 238-503 limits assumed): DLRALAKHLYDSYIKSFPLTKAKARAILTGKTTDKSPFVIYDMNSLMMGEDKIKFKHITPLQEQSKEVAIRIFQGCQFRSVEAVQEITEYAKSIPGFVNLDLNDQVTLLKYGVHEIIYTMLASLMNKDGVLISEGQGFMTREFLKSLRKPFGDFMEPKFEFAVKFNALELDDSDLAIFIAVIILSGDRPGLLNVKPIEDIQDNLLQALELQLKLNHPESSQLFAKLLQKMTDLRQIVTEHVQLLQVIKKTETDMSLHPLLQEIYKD
Procedure: b) Determination of hPPARγ Activity
Ligand binding domain of hPPARγ1 is fused to DNA binding domain of Yeast transcription factor GAL4 in eucaryotic expression vector. Using lipofectamine (Gibco BRL, USA) as transfecting reagent HEK-293 cells are transfected with this plasmid and a reporter plasmid harboring the luciferase gene driven by a GAL4 specific promoter. Compound can be added at 1 μM concentration after 48 hrs of transfection and incubated overnight Luciferase activity as a function of drug binding/activation capacity of PPARγ1 will be measured using Packard Luclite kit (Packard, USA) in Packard Top Count (Ivan Sadowski, Brendan Bell, Peter Broag and Melvyn Hollis. Gene. 1992. 118 : 137-141; Guide to Eukaryotic Transfections with Cationic Lipid Reagents. Life Technologies, GIBCO BRL, USA).

Swiss albino mice = assay: Plasma triglyceride lowering activity in Swiss albino mice; format: in vivo; details: Mus musculus, 144 h, read-out: % of Reduction in Triglyceride
Procedure: b) Plasma Triglyceride and Total Cholesterol Lowering Activity in Swiss Albino Mice and Guinea Pigs
Male Swiss albino mice (SAM) and male Guinea pigs are obtained from NIN and housed in DRF animal house. All these animals are maintained under 12 hour light and dark cycle at 25±1° C. Animals are given standard laboratory chow (NIN, Hyderabad, India) and water, ad libitum. SAM of 20-25 g body weight range and Guinea pigs of 500-700 g body weight range are used (Oliver, P., Plancke, M. O., Marzin, D., Clavey, V., Sauzieres, J and Fruchart, J. C. Effects of fenofibrate, gemfibrozil and nicotinic acid on plasma lipoprotein levels in normal and hyperlipidemic mice. Atherosclerosis. 1988. 70 : 107-114).
The test compounds can be administered orally to Swiss albino mice at 0.3 to 30 mg/kg/day dose for 6 days. Control mice are treated with vehicle (0.25% Carboxymethylcellulose; dose 10 ml/kg). The test compounds are administered orally to Guinea pigs at 0.3 to 30 mg/kg/day dose for 6 days. Control animals are treated with vehicle (0.25% Carboxymethylcellulose; dose 5 ml/kg).
The blood samples can be collected in fed state 1 hour after drug administration on 0 and 6 day of treatment. The blood can be collected from the retro-orbital sinus through heparinised capillary in EDTA containing tubes. After centrifugation, plasma sample was separated for triglyceride and total cholesterol (Wieland, O. Methods of Enzymatic analysis. Bergermeyer, H. O., Ed., 1963. 211-214; Trinder, P. Ann. Clin. Biochem. 1969. 6 : 24-27). Measurement of plasma triglyceride, total cholesterol and HDL are done using commercial kits (Dr. Reddy's Diagnostic Division, Hyderabad, India).

hPPARα = biological target: T2, hPPARα (Homo sapiens, UniProt Q07869); assay: Determination of hPPARα activity (GAL4-LBD luciferase reporter transactivation in HEK-293 cells); format: cell-based; details: 50 μM compound
T2 construct: expressed in transfected cells; host or cells: HEK-293
T2 sequence (Q07869 239-466 limits assumed): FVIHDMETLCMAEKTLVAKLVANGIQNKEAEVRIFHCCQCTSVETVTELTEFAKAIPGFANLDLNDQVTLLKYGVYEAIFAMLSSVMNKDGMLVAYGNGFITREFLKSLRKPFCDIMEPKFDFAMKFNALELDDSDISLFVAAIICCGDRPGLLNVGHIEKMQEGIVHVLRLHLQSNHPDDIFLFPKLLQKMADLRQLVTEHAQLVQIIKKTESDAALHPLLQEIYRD
Procedure: a) Determination of hPPARα Activity Ligand binding domain of hPPARα was fused to […] of Yeast transcription factor GAL4 in eucaryotic expression vector. Using superfect (Qiagen, Germany) as transfecting reagent HEK-293 cells are transfected with this plasmid and a reporter plasmid harboring the luciferase gene driven by a GAL4 specific promoter. Compound can be added at different concentrations after 42 hrs of transfection and incubated overnight. Luciferase activity as a function of compound binding/activation capacity of PPARα will be measured using Packard Luclite kit (Packard, USA) in Top Count (Ivan Sadowski, Brendan Bell, Peter Broag and Melvyn Hollis. Gene. 1992. 118 : 137-141; Superfect Transfection Reagent Handbook. February 1997. Qiagen, Germany).

C57BL/KsJ-db/db mice = assay: Efficacy in genetic model: plasma glucose and triglyceride lowering in db/db mice; format: in vivo; details: 3 mg/kg/d oral gavage, 6 days
Text: a) Efficacy in Genetic Models
Mutation in colonies of laboratory animals and different sensitivities to dietary regimens have made the development of animal models with non-insulin dependent diabetes and hyperlipidemia associated with obesity and insulin resistance possible. Genetic models such as db/db and ob/ob (Diabetes, (1982) 31(1) : 1-6) mice and zucker fa/fa rats have been developed by the various laboratories for understanding the pathophysiology of disease and testing the efficacy of new antidiabetic compounds (Diabetes, (1983) 32: 830-838; Annu. Rep. Sankyo Res. Lab. (1994). 46: 1-57). The homozygous animals, C57 BL/KsJ-db/db mice developed by Jackson Laboratory, US, are obese, hyperglycemic, hyperinsulinemic and insulin resistant (J. Clin. Invest., (1990) 85 : 962-967), whereas heterozygous are lean and normoglycemic. […]
The random blood sugar and triglyceride levels can be measured by collecting blood (100 μl) through orbital sinus, using heparinised capillary in tubes containing EDTA which was centrifuged to obtain plasma. The plasma glucose and triglyceride levels can be measured spectrometrically, by glucose oxidase and glycerol-3-PO4 oxidase/peroxidase enzyme (Dr. Reddy's Lab. Diagnostic Division Kits, Hyderabad, India) methods respectively.

[1] = Swiss albino mice, 3 mg/kg/d oral, 6 days

Row | melting point | SMILES | PPAR fold activation, PPAR γ at 1 μM concentration (hPPARγ1) | inhibition in vivo at 10 mg/kg/day (Swiss albino mice; po) | PPAR fold activation, PPAR α at 50 μM concentration (hPPARα) | inhibition in vivo at 3 mg/kg/day (Swiss albino mice; po) | inhibition in vivo at 3 mg/kg/day (Swiss albino mice; [1]) | % of Reduction in Triglyceride (C57BL/KsJ-db/db mice) | % of reduction in Plasma glucose (C57BL/KsJ-db/db mice)
1 | – | CCOC(CCCc1ccc(NCc2ccc3cc(OS(C)(=O)=O)ccc3c2)cc1)C(=O)O (stereo not drawn) [Example 46, 2-Ethoxy-5-[4-{6-methanesulfonyloxynapth-2-ylmethylamino}phenyl]pentatonic acid Arginine salt] | 2.1 fold | 12% | 3.2 fold | – | – | – | –
2 | – | CCOC(Cc1ccc(NCCCn2ccc3ccccc32)cc1)C(=O)O (stereo not drawn) [Example 47, 2-Ethoxy-3-[4-{3-(indol-1-yl)propylamino}phenyl]propanoic acid Arginine salt] | 6.7 fold | – | 4.8 fold | 60% | – | – | –
3 | – | CO[C@@H](Cc1ccc(NCCCn2ccc3ccccc32)cc1)C(=O)O [Example 48, (S)-2-Methoxy-3-[4-{3-(indol-1-yl)propylamino}phenyl]propanoic acid Arginine salt] | 6.1 fold | – | 4.6 fold | 27% | – | – | –
4 | – | CCOC(Cc1ccc(NCC2CCc3cc(OS(C)(=O)=O)ccc3C2)cc1)C(=O)O (stereo not drawn) [Example 53, 2-Ethoxy-3-[4-{(6-methanesulfonyloxy-1,2,3,4-tetrahydronapth-2-yl)methylamino}phenyl]propanoic acid Arginine salt] | 5.8 fold | – | 3.7 fold | 79% | – | – | –
5 | – | CCOC(Cc1ccc(NCCCN2CCCc3ccccc32)cc1)C(=O)O (stereo not drawn) [Example 55, 2-Ethoxy-3-[4-{3-1,2,3,4-tetrahydroquinolyn-1-yl)propylamino}phenyl]propanoic acid Arginine salt] | 11.9 fold | – | 3.8 fold | 60% | – | – | –
6 | – | CCO[C@@H](Cc1ccc(NCCCn2ccc3cc(OS(C)(=O)=O)ccc32)cc1)C(=O)O [Example 49, (S)-2-Ethoxy-3-[4-{3-(5-methanesulfonyloxyindol-1-yl)propylamino}phenyl]propanoic acid Arginine salt] | 1.5 fold | – | 3.6 fold | 54% | – | – | –
7 | 168 to 170 °C | CCOC(Cc1ccc(NCc2ccc3cc(OS(C)(=O)=O)ccc3c2)cc1)C(=O)O (stereo not drawn) [Example 24, 2-Ethoxy-3-[4-{6-methanesulfonyloxynapth-2-ylmethylamino}phenyl]propanoic acid] | 4.5 fold | – | 7.4 fold | – | 46% | – | –
8 | 94 to 96 °C | CCOC(=O)[C@H](Cc1ccc(NCc2ccc3cc(OS(C)(=O)=O)ccc3c2)cc1)OC [Example 1, (S)-Ethyl 2-methoxy-3-[4-(6-methanesulfonyloxynapth-2-ylmethylamino)phenyl]propanoate] | 9.2 fold | – | 2.7 fold | – | – | – | –
9 | – | CO[C@@H](Cc1ccc(NCc2ccc3cc(OS(C)(=O)=O)ccc3c2)cc1)C(=O)O [Example 45, (S)-2-Methoxy-3-[4-{6-methanesulfonyloxynapth-2-ylmethylamino}phenyl]propanoic acid Arginine salt] | 1.4 fold | – | 5.2 fold | 60% | – | 28% | 32%
10 | 118 to 120 °C | CCOC(=O)C(Cc1ccc(NCc2ccc3cc(OS(C)(=O)=O)ccc3c2)cc1)OCC (stereo not drawn) [Example 2, Ethyl 2-ethoxy-3-[4-{6-methanesulfonyloxynapth-2-ylmethylamino}phenyl]propanoate] | 15.5 fold | – | 3.5 fold | – | 50% | – | –
11 | – | CO[C@@H](Cc1ccc(NCCCn2ccc3cc(OS(C)(=O)=O)ccc32)cc1)C(=O)O [Example 50, (S)-2-Methoxy-3-[4-{3-(5-methanesulfonyloxyindol-1-yl)propylamino}phenyl]propanoic acid Arginine salt] | 1.4 fold | – | 3.5 fold | 31% | – | – | –
12 | – | CCOC(Cc1ccc(NCCCN2CCc3ccccc32)cc1)C(=O)O (stereo not drawn) [Example 52, 2-Ethoxy-3-[4-{3-2,3-dihydroindol-1-yl)propylamino}phenyl]propanoic acid Arginine salt] | 6 fold | – | 4.0 fold | – | – | – | –
